Assays:
[1] = molecular target: T1, bovine carbonic anhydrase II (CAII) (Bos taurus, UniProt P00921); test: Carbonic anhydrase II inhibition assay (esterase activity on p-nitrophenyl acetate); format: biochemical; details: source data of Fig. 2c, read-out: Normalized CA II Activity (Mean)
T1 construct: purchased Sigma-Aldrich C7749
Protocol: CAII inhibition assay was performed to measure the inhibitory effect of re-synthesized CBS-conjugates. The esterase activity of CAII with a chromogenic substrate p-nitrophenyl acetate (pNPA) was measured. The rates of hydrolysis were determined by an increase of absorption at 410 nm after incubating different compounds with CAII. Re-synthesized compounds were diluted in a serial spanning mM to μM concentrations. […] 5 µl of pNPA (50 mM in 20% DMSO) was added to the plate right before the measurement. The absorption was measured at 37 °C each 10 sec for 15 min using a Beckman Coulter’s Paradigm Detection Platform (Brea, USA). The initial Vmax was obtained from the increase of absorption and the Vmax was plotted against the inhibitor concentrations and logistic fitting was performed to obtain IC50 values using Origin 2019b (OriginLab) software.

[2] = molecular target: T2, bovine trypsin (Bos taurus, UniProt P00760); test: Trypsin inhibition assay (proteolytic activity on BApNA); format: biochemical; details: for remaining activity at 1000 µM: Concentration 1000000 nM; for IC50: mean ± SE, three independent measurements, n.d: not detected; for improvement (of inhibitory effect): compared with 4-aminomethyl benzamidine
T2 construct: purchased Sigma-Aldrich T8003
T2 sequence (P00760 24-246): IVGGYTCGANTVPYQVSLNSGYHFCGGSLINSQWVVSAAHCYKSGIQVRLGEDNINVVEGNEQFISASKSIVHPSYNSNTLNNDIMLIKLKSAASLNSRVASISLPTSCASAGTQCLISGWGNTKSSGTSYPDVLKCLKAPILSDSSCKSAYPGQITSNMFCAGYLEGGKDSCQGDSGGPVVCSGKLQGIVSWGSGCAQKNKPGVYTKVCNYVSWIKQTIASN
Protocol: The inhibition by the benzamidine derivatives against trypsin was measured using an assay probing the enzyme proteolytic activity on the substrate Nα-Benzoyl-DL-arginine-4-nitroanilide hydrochloride (BApNA). […] 5 µl of BApNA solution (10 mM, dissolved in DMSO) were added immediately prior to the measurement. The final total volume was 100 µl per well. The measurements were performed in a Low Binding 384-well plate. The absorption was measured at 410 nm in intervals of 10 sec for 15 min at 37 °C using a Beckman Coulter’s Paradigm Detection Platform (Brea, USA). The measurements were performed in triplicate. The activity of trypsin was calculated by the hydrolysis rate of BApNA after subtraction of the background-hydrolysis rate. The curves were plotted as a function of the concentration of the inhibitor against the relative enzyme activity. Vmax was derived from the detected absorption signal for each concentration and logistic fitting was performed to obtain IC50 values using Origin 2019b (OriginLab).

[3] = Concentration 0.1024 nM, fraction of uninhibited activity, read-out: mean (Figure 3c, dose-response, relative trypsin activity)
[4] = Concentration 0.512 nM, fraction of uninhibited activity, read-out: mean (Figure 3c, dose-response, relative trypsin activity)
[5] = Concentration 2.56 nM, fraction of uninhibited activity, read-out: mean (Figure 3c, dose-response, relative trypsin activity)
[6] = Concentration 64 nM, fraction of uninhibited activity, read-out: mean (Figure 3c, dose-response, relative trypsin activity)
[7] = Concentration 320 nM, fraction of uninhibited activity, read-out: mean (Figure 3c, dose-response, relative trypsin activity)
[8] = Concentration 1600 nM, fraction of uninhibited activity, read-out: mean (Figure 3c, dose-response, relative trypsin activity)
[9] = Concentration 8000 nM, fraction of uninhibited activity, read-out: mean (Figure 3c, dose-response, relative trypsin activity)
[10] = Concentration 40000 nM, fraction of uninhibited activity, read-out: mean (Figure 3c, dose-response, relative trypsin activity)
[11] = Concentration 200000 nM, fraction of uninhibited activity, read-out: mean (Figure 3c, dose-response, relative trypsin activity)
[12] = fraction of uninhibited activity, read-out: mean (Figure 3c, dose-response, relative trypsin activity)

T1 sequence (P00921 whole entry): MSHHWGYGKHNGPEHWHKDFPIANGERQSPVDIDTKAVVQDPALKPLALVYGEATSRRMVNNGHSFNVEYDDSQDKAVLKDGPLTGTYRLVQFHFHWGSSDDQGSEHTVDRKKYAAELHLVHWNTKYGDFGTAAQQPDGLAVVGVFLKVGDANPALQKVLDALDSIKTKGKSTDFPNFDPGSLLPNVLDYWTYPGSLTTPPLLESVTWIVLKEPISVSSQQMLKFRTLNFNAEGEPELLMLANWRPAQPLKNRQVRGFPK

| SMILES | remaining activity at 0.0001024 µM [2, 3] | remaining activity at 0.000512 µM [2, 4] | remaining activity at 0.00256 µM [2, 5] | remaining activity at 0.064 µM [2, 6] | remaining activity at 0.32 µM [2, 7] | remaining activity at 1.6 µM [2, 8] | remaining activity at 8 µM [2, 9] | remaining activity at 40 µM [2, 10] | remaining activity at 200 µM [2, 11] | remaining activity at 1000 µM [2, 12] | IC50 [2] | improvement (of inhibitory effect) [2] | other results |
| --- | --- | --- | --- | --- | --- | --- | --- | --- | --- | --- | --- | --- | --- |
| NS(=O)(=O)c1ccc(NC(=O)c2ccc(-n3cc(CCC(=O)NCCNC(=O)/C=C/c4ccc(-c5ccccc5C(F)(F)F)o4)nn3)cc2)cc1 [Compound C-4] | – | – | – | – | – | – | – | – | – | – | – | – | remaining activity at 0.0001024 µM ([1]; 0.1024 nM compound): 96.8%; remaining activity at 0.000512 µM ([1]; 0.512 nM compound): 89%; remaining activity at 0.00256 µM ([1]; 2.56 nM compound): 89.3%; remaining activity at 0.064 µM ([1]; 64 nM compound): 89.8%; remaining activity at 0.32 µM ([1]; 320 nM compound): 90.3%; remaining activity at 1.6 µM ([1]; 1600 nM compound): 65%; remaining activity at 8 µM ([1]; 8000 nM compound): 42.3%; remaining activity at 40 µM ([1]; 40000 nM compound): 33.8%; remaining activity at 200 µM ([1]; 200000 nM compound): 9.19% |
| N=C(N)c1ccc(CNC(=O)C2CCC(C(=O)NCCNC(=S)Nc3cccc(I)c3)CC2)cc1 (stereo not drawn) [Compound T-4] | – | – | – | – | – | – | – | – | – | – | – | – | mean (Figure 3c, dose-response, relative trypsin activity) ([2]; Concentration 0.1024 nM, fraction of uninhibited activity): 0.916; mean (Figure 3c, dose-response, relative trypsin activity) ([2]; Concentration 0.512 nM, fraction of uninhibited activity): 1.0035; mean (Figure 3c, dose-response, relative trypsin activity) ([2]; Concentration 2.56 nM, fraction of uninhibited activity): 1.023; mean (Figure 3c, dose-response, relative trypsin activity) ([2]; Concentration 64 nM, fraction of uninhibited activity): 0.976; mean (Figure 3c, dose-response, relative trypsin activity) ([2]; Concentration 320 nM, fraction of uninhibited activity): 0.9546; mean (Figure 3c, dose-response, relative trypsin activity) ([2]; Concentration 1600 nM, fraction of uninhibited activity): 0.8556; mean (Figure 3c, dose-response, relative trypsin activity) ([2]; Concentration 8000 nM, fraction of uninhibited activity): 0.5625; mean (Figure 3c, dose-response, relative trypsin activity) ([2]; Concentration 40000 nM, fraction of uninhibited activity): 0.1537; mean (Figure 3c, dose-response, relative trypsin activity) ([2]; Concentration 200000 nM, fraction of uninhibited activity): 0.03111; mean (Figure 3c, dose-response, relative trypsin activity) ([2]; Concentration 440000 nM, fraction of uninhibited activity): 0.01768; mean (Figure 3c, dose-response, relative trypsin activity) ([2]; Concentration […], fraction of uninhibited activity): 0.9246 |
| N=C(N)c1ccc(CN)cc1 [4-Aminomethyl benzamidine, 4-aminomethyl benzamidine, reference compound] | 108% | 96.5% | 102% | 110% | 101% | 106% | 103% | 82.5% | 44.6% | 12.9% | 147 µM | – | – |
| S=C=Nc1ccccc1I [Compound B, 2-iodophenyl isothiocyanate, reference compound] | 103% | 102% | 94.8% | 107% | 107% | 100% | 108% | 105% | 114% | 90.1% | – | – | inhibitory effect ([2]; in words): did not display any detectable inhibitory effect |

More lines, main results first:

| remaining activity at 0.0001024 µM [2, 3] | remaining activity at 0.000512 µM [2, 4] | remaining activity at 0.00256 µM [2, 5] | remaining activity at 0.064 µM [2, 6] | remaining activity at 0.32 µM [2, 7] | remaining activity at 1.6 µM [2, 8] | remaining activity at 8 µM [2, 9] | remaining activity at 40 µM [2, 10] | remaining activity at 200 µM [2, 11] | remaining activity at 1000 µM [2, 12] | IC50 [2] | improvement (of inhibitory effect) [2] | SMILES | other results |
| --- | --- | --- | --- | --- | --- | --- | --- | --- | --- | --- | --- | --- | --- |
| 101% | 110% | 107% | 110% | 102% | 97.5% | 74% | 23.7% | 5.61% | 1.19% | 16.6 ± 3.1 µM | approximately 9 fold | N=C(N)c1ccc(CNC(=S)Nc2cccc(I)c2)cc1 [Compound T-0] | – |
| 105% | 104% | 106% | 109% | 97.3% | 81.2% | 37.4% | 7.09% | 1.08% | – | 5.2 ± 2.2 µM | 70 fold | N=C(N)c1ccc(CNCc2ccc(C(=O)NCCNC(=S)Nc3cccc(I)c3)cc2)cc1 [Compound T-2] | remaining activity at 365 µM ([2]; Concentration 365000 nM, fraction of uninhibited activity, read-out: mean (Figure 3c, dose-response, relative trypsin activity)): 0.681% |

— publication PMC10023787, “Trio-pharmacophore DNA-encoded chemical library for simultaneous selection of fragments and linkers” (Nature Communications, 2023)
